Laboratory results: US20260240842A1, “METHODS TO PREVENT THERAPY RESISTANCE IN MELANOMA VIA BLOCKING GENOMIC INSTABILITY” (THE REGENTS OF THE UNIVERSITY OF CALIFORNIA, priority 2022, published 2026)

Key:
[1] = system: human BRAF^V600MUT (M229, M249, M395) or NRAS^Q61MUT (M202, M207, M245) melanoma cell lines; assay: Long-term clonogenic growth: emergence of acquired MAPKi-resistant colonies (DTPPs) in parental melanoma cell lines under MAPKi; assay type: cell-based; settings: parental cell lines, FIG. 11C to 11E and FIG. 12
Protocol: FIGS. 4A-4U. DNA-PKi and/or PARPi co-treatment prevents acquired MAPKi-resistance in human melanoma cell lines. FIGS. 4A to 4O: Long-term clonogenic growth of isogenic parental and acquired MAPKi-resistant BRAF^V600MUT (4A to 4H) or NRAS^Q61MUT (4I to 4O) human melanoma cell lines showing acquired-resistant colonies to BRAFi+MEKi (PLX4032 at 0.5 mM, AZD6244 at 0.5 mM in 4A and 4G; PLX4032 at 0.25 mM, AZD6244 at 0.25 mM in 4D; PLX4032 at 1 mM, AZD6244 at 1 mM in 4B, 4C, 4E, 4F and 4H) or MEKi (trametinib at 0.005 mM in I and 0.01 mM in 4J and 4N; trametinib at 0.1 mM in 4K, 4M and 4O) and their suppression by indicated co-treatments with DNA-PKi (NU7026) and/or PARPi (ABT888) at indicated concentrations. Top, representative cultures; bottom, quantifications over n=4 fields (mean±SD). Data representative of 2 to 4 independent repeats. Seeding densities (cells/well in 6-well dishes) and culture durations (days): (4A) 5,000; 31, (4B) 1,000; 17, (4C) 5,000; 18, (4D) 40,000; 40, (4E) 5,000; 14, (4F) 5,000; 12, (4G) 20,000; 30, (4H) 20,000; 21, (4I) 40,000; 30, (4J) 50,000; 31, (4K) 5,000; 17, (4L) 5,000; 22, (4M) 5,000; 16, (4N) 20.000; 16, and (4O) 5,000; 16. Data representative of 2 to 4 independent repeats. FIGS. 4P and 4Q: Western blot, MTT assay (upper), and clonogenic growth assay (lower) of M245 cells transduced by lentivirus harboring shVector control or shRNAs of PRKDC (4P) or LIG4 (4Q). TUBULIN, loading control. Clonogenic growth with vehicle (14 days, 5,000 cells/well in 6-well dishes) or MEKi (29 days, 50,000 cells/well in 6-well dishes) treatments. MEKi, trametinib at 0.01 μM. Representative results of two independent experiments; quantification of n=4 fields (mean±SD). FIGS. 4R and 4S: As in 4A and 4J, respectively, except DNA-PKi and/or PARPi co-treatments were performed in M229 (4R) and M245 (4S) at a later stage of MAPKi treatment (see timepoint schema). Inhibitor concentrations for M229: BRAFi+MEKi (PLX4032 at 0.5 μM, AZD6244 at 0.5 μM), NU7026 (8 μM), ABT888 (4 μM) and NU7026+ABT888 (4 μM+4 μM). Inhibitor concentrations for M245: MEKi (trametinib at 0.01 μM), NU7026 (5 μM), ABT888 (1 μM) and NU7026+ABT888 (5 μM+1 μM). Left, representative cultures; right, quantifications over n=4 fields (mean±SD). Data representative of 2 independent repeats. FIGS. 4T and 4U: As in 4A and 4J, respectively, except DNA-PKi and/or PARPi co-treatments were performed in M229 (4T) and M245 cells (4U) at the same concentrations in R and S for the entire durations (day 1-28 in 4T; day 1-30 in 4U), the first half (day 1-14 in T; day 1-15 in 4U) or the second half (day 14-28 in 4T: day 15-30 in 4U) of the total treatment course. Top, representative cultures; bottom, quantifications over n=4 fields (mean±SD). Data representative of 2 independent repeats. P values (one-way ANOVA followed by Tukey's multiple comparison test) comparing indicated cultures versus MAPKi-only cultures (4A to 4O and 4R to 4U) or shVector culture (4P and 4Q): *, p<0.05; **, p<0.01: ***, p<0.001.
FIGS. 12A-12F. DNA-PKi and/or PARPi co-treatment prevents acquired MAPKi-resistance in human melanoma cell lines. FIGS. 12A to 12F: Long-term clonogenic growth of BRAF^V600MUT (12A, 12C and 12E) or NRAS^Q61MUT (12B, 12D and 12F) cell lines showing acquired-resistant colonies to BRAFi+MEKi (PLX4032 at 0.5 mM, AZD6244 at 0.5 mM for M229 and M395; PLX4032 at 0.25 mM, AZD6244 at 0.25 mM for M249) or MEKi (trametinib at 0.005 mM for M202 and 0.01 mM for M207 and M245) and their suppression by indicated co-treatments with DNA-PKi (VX984 in 12A and 12B; AZD7648 in 12C and 12D) and/or PARPi (olaparib in 12E and 12F) at indicated concentrations. Top, representative cultures; bottom, quantifications over n=4 fields (mean±SD). Data representative of 2 independent repeats. Seeding densities (cells/well in 6-well dishes) and culture durations (days): M202 (40,000, 30), M207 (20,000, 16), M229 (5,000, 32), M245 (50,000, 31), M249 (40,000, 40), and M395 (20,000, 30). […]

[2] = system: γH2AX; assay: Immunofluorescence of γH2AX nuclear foci in early on-treatment PDX tumors; assay type: in vivo, NSG mice; settings: short-term MEKi treatment in Mel_PDX1; FIG. 13G
Text: FIGS. 13A-13H. In vivo impacts of DNA-PKi when combined with MAPKi. FIGS. 13A and 13B: Long-term follow-up of tumor volumes (13A, BRAFi+MEKi, n=5 tumors; BRAFi+MEKi+DNA-PKi, n=6 tumors) (13B, MEKi, n=6 tumors; MEKi+DNAP-PKi, n=6 tumors) and average mice body weights for 13A and 13B. Related to experiments in FIGS. 7B and 7E, respectively. FIGS. 13C and 13D, Tumor volumes (mean±SEM) of two examples of tumor models treated short-term with vehicle or indicated single versus combined agents. Inhibitors and dosages are identical to those in FIGS. 7C and 7E, respectively. The numbers of tumors and their sizes are shown in the photographs (right) taken at the times of tumor harvest (end points). FIGS. 13E to 13G: Immunofluorescence of p-ERK (13E), p-DNA-PKcs (S2056) (13F), or γH2AX (13G) levels in Mel_PDX1 tumor model, treated with vehicle or indicated single versus combined agents for 11 days (shown in 13C). DAPI, nuclear stain. Scale bar, 50 μm (13E) and 20 μm (13F and 13G). Representative images shown for two tumors analyzed per group. Quantification of p-DNA-PKcs signals obtained by taking the average of positively stained foci per nucleus (13F, representative of 4 fields). Quantification of γH2AX signals analyzed either by percentage of cells with γH2AX foci or percentage of cells with greater than 5 γH2AX foci (13G, representative of 4 fields). […]

Row | SMILES | combinatorial efficacy of next-generation DNA-PKi and PARPi with MAPKi [1] | tumor cells with gH2AX nuclear foci [2]
1 | Cc1cc2ncnn2cc1Nc1ncc2c(n1)n(C1CCOCC1)c(=O)n2C [AZD7648] | corroborated the combinatorial efficacy | –
2 | O=C(c1cc(Cc2n[nH]c(=O)c3ccccc23)ccc1F)N1CCN(C(=O)C2CC2)CC1 [olaparib] | corroborated the combinatorial efficacy | –
3 | CC(=O)Nc1cccc(-n2c(=O)n(C3CC3)c(=O)c3c(Nc4ccc(I)cc4F)n(C)c(=O)c(C)c32)c1 [trametinib] | – | > 50%
